# Assay results reported in ChEMBL document CHEMBL4400517, “Marine natural products as potential anti-tubercular agents” (Eur J Med Chem, 2019).
# Columns and labels:
# [1] = system: Mycolicibacterium smegmatis; assay: Antimycobacterial activity against Mycobacterium smegmatis; assay type: functional
# [2] = system: Mycobacterium tuberculosis; assay: Antimycobacterial activity against Mycobacterium tuberculosis H37Ra; assay type: functional
# [3] = system: Mycolicibacterium smegmatis; assay: Antimycobacterial activity against Mycobacterium smegmatis MC2 155 by broth dilution method; assay type: functional
# [4] = system: Mycobacterium tuberculosis; assay: Antimycobacterial activity against Mycobacterium tuberculosis incubated for overnight by NCCLS broth dilution method; assay type: functional
# [5] = system: Mycobacterium tuberculosis; assay: Antimycobacterial activity against Mycobacterium tuberculosis H37Rv by broth dilution method; assay type: functional
# [6] = system: Mycobacterium tuberculosis; assay: Antimycobacterial activity against Mycobacterium tuberculosis H37Rv assessed as inhibition of mycobacterial growth at 12 ug/ml relative to control; assay type: functional
# [7] = system: Mycobacterium tuberculosis; assay: Antimycobacterial activity against Mycobacterium tuberculosis assessed as diameter of inhibition zone at 40 ug/disc; assay type: functional; details: read-out: IZ
# [8] = target: T1, Enoyl-[acyl-carrier-protein] reductase [NADH] (Mycobacterium tuberculosis) (UniProt P9WGR1); assay: Inhibition of Mycobacterium tuberculosis InhA enzyme at 10 uM relative to control
# T1 sequence (whole entry): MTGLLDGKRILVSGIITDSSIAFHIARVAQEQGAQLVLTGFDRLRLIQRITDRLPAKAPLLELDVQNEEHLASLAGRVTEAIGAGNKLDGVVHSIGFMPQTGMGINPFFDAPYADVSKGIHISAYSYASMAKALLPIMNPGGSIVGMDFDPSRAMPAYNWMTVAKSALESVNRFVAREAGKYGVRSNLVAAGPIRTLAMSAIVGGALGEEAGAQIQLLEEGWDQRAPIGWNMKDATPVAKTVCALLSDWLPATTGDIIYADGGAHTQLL
# [9] = system: Mycobacterium tuberculosis; assay: Antimycobacterial activity against Mycobacterium tuberculosis H37Rv; assay type: functional, organism-based
# [10] = Inhibition of Mycobacterium PknG
# [11] = target: T2, Phosphotyrosine protein phosphatase (Mycobacterium tuberculosis, UniProt A0A045ISB3); assay: Inhibition of Mycobacterium tuberculosis Protein Tyrosine Phosphatase B
# T2 sequence (A0A045ISB3 whole entry): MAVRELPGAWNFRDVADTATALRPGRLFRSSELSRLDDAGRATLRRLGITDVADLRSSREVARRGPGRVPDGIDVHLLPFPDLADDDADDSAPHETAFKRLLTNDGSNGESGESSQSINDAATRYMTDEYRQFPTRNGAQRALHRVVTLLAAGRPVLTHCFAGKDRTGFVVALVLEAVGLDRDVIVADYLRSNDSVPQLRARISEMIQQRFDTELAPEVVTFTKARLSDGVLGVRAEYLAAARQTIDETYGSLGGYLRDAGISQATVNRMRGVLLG
# [12] = system: Mycobacterium tuberculosis; assay: Antimycobacterial activity against Mycobacterium tuberculosis H37Rv by Alamar Blue assay; assay type: functional
# [13] = system: Mycobacterium tuberculosis; assay: Antimycobacterial activity against Mycobacterium tuberculosis H37Rv ATCC 27294 by Alamar Blue staining-based broth microdilution assay; assay type: functional
compound,measurement,setting,value
C1=C2CCCC/C=C\C=C\CCN3CC[C@@H]4[C@H](CCCCCC/C=C\C=C/CCN(C2)C[C@H]14)C3 (relative stereo) [HALICYCLAMINE A],MIC,[1],2.16 to 10.8 µM
same,MIC,[2],2.16 to 10.8 µM
C/C=C/C[C@@H]1NC(=O)[C@H](CC(C)C)N2C(=O)[C@H](C[C@H](C)[C@H]2O)N(C)C(=O)[C@H](C)NC(=O)[C@H](Cc2ccc(O)c([N+](=O)[O-])c2)NC(=O)[C@H](CC(C)C)N(C)C(=O)[C@H](Cc2cn(C(C)(C)[C@H]3CO3)c3ccccc23)NC1=O,MIC,[3],0.12 µM
CN1C(=O)[C@]23CC4=CC=C[C@H](O)[C@H]4N2C(=O)[C@@]1(CO)SS3 [GLIOTOXIN],MIC,[4],< 0.03 µM
C=CC(C)(C)n1cc(C[C@@H]2NC(=O)[C@H](C/C=C/C)NC(=O)[C@H](CC(C)C)N3C(=O)[C@H](C[C@H](C)[C@H]3O)N(C)C(=O)[C@H](C)NC(=O)[C@H](Cc3ccc(O)c([N+](=O)[O-])c3)NC(=O)[C@H](CC(C)C)N(C)C2=O)c2ccccc21,MIC,[5],0.0098 µM
C/C=C1\NC(=O)[C@H](Cc2ccccc2)NC(=O)[C@@H](C(C)C)NC(=O)[C@@H]([C@@H](C)CC)NC(=O)[C@H](NC(=O)[C@H](NC(=O)[C@H](CCCN)NC(=O)[C@H]2CCCN2C(=O)[C@H](NC(=O)[C@@H](NC(=O)[C@@H](NC(=O)[C@H](NC(=O)CCCC(C)C)C(C)C)[C@@H](C)O)C(C)C)C(C)C)[C@@H](C)CC)[C@@H](C)OC(=O)[C@H](C(C)C)NC1=O,inhibition at 12 µg/mL,[6],67%
COc1cc(OC)c2c(O)c3c(=O)cc(C)oc3c(-c3c4cc(O)cc(OC)c4c(O)c4c(=O)cc(C)oc34)c2c1,zone of inhibition at 40 µg/disc,[7],11 mm
C/C=C/C[C@@H]1NC(=O)[C@H](CC(C)C)N2C(=O)[C@H](C[C@H](C)[C@@H]2O)N(C)C(=O)[C@H](C)NC(=O)[C@H](Cc2ccc(O)c([N+](=O)[O-])c2)NC(=O)[C@H](CC(C)C)N(C)C(=O)[C@H](Cc2cn(C(C)(C)[C@H]3CO3)c3ccccc23)NC1=O,MIC,[3],0.12 µM
CCC(C)C(=O)N[C@H](Cc1ccccc1)C(=O)NC1C(=O)N[C@H](CC(C)C)C(=O)N[C@H](Cc2ccccc2)C(=O)N[C@H](CC(C)C)C(=O)N[C@H]([C@H](C)O)C(=O)N[C@@H](CO)C(=O)O[C@@H]1C (stereo not given in full),inhibition at 12 µg/mL,[6],83%
CCCCCC(=O)c1c(O)cc(CCCCC)oc1=O,inhibition,[8],68%
same,MIC,[9],2.79 µM
C=CC(C)(C)n1cc(C[C@@H]2NC(=O)[C@H](C/C=C/C)NC(=O)[C@H](CC(C)C)N3C(=O)[C@H](C[C@H](C)[C@@H]3O)N(C)C(=O)[C@H](C)NC(=O)[C@H](Cc3ccc(O)c([N+](=O)[O-])c3)NC(=O)[C@H](CC(C)C)N(C)C2=O)c2ccccc21,MIC,[5],0.0098 µM
CC[C@H](C)/C=C(C)/C=C/C1=CC2=C(Cl)C(=O)[C@](C)(OC(C)=O)C(=O)C2=CO1 [SCLEROTIORIN],IC50,[10],76.5 µM
CCCCCCCc1cc(O)c(CCCCCC)c(=O)o1 [PSEUDOPYRONINES B],inhibition,[8],12%
same,MIC,[9],2.65 to 5.31 µM
CC(=O)c1cc(C)c(O)c(Cc2c(O)cc(-c3ccc(O)c(O)c3)oc2=O)c1O,IC50,[11],0.16 µM
C[C@@H]1C[C@H](C)C(=O)/C=C/[C@@H]2[C@@H](O)[C@H]3OC4=C(C(=O)O[C@@]42C[C@H]3C)C1=O (stereo in doubt; (-)-145),MIC,"[12]; Mycobacterium tuberculosis, H37Rv, read-out: MIC",3.6 µM
CCCCCCC[C@@H]1C[C@@H]2CCC3=C(C(=O)OC(C)CCCCCC[C@@H]4C[C@@H]5CC[C@@H]6C[C@H](C)NC(=N4)N65)C(C)N=C(N1)N32 (stereo not given in full),MIC,[13],5.23 µM
C[C@@H]1C[C@H](C)C(=O)/C=C/[C@@H]2[C@@H](O)[C@H]3OC4=C(C(=O)O[C@@]42C[C@H]3C)C1=O (stereo in doubt; (+)-145),MIC,[12],7.2 µM
CC(=O)c1cc(C)c(O)c(CC2=C(C)C(=O)C(O)=C(C)C2=O)c1O,IC50,[11],1.37 µM
